As usually defined, the AC50 is the concentration giving half of the maximal activity seen.

The source of these data is patent publication US20250171438A1 (Agios Pharmaceuticals, Inc., priority 2022, published 2025).

Bounds are passed on as bounds.

The target in the first test is T1, human PAH with the R408W mutation (Homo sapiens, UniProt P00439, R408W).
T1 construct: expressed in transfected cells
T1 sequence (P00439 1-452 R408W): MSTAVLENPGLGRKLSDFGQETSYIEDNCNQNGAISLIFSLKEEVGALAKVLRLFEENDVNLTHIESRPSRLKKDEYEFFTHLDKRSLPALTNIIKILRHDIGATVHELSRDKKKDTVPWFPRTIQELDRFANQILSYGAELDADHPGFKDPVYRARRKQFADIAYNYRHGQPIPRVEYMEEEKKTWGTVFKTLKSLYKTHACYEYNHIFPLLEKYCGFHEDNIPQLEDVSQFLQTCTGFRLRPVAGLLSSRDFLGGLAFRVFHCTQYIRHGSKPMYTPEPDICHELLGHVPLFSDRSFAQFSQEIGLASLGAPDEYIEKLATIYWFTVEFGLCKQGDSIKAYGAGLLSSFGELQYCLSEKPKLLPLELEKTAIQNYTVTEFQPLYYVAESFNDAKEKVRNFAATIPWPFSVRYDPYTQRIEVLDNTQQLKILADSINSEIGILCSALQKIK
Kind of test: Cell Based Phenylalanine Flux Assay. Particulars: A375 cells expressing human R408W PAH; 24 hrs compound incubation; 13C-Tyrosine by LC-MS; average where tested multiple times; read-out: AC50.
`O=C(c1nnc(-c2ncccc2F)o1)N1CCc2[nH]cnc2[C@@H]1c1nc2ccccc2s1` [Example 1709, (R)-(4-(benzo[d]thiazol-2-yl)-6,7-dihydro-1H-imidazo[4,5-c]pyridin-5(4H)-yl)(5-(3-fluoropyridin-2-yl)-1,3,4-oxadiazol-2-yl)methanone]: the AC50 was < 0.5 µM.

For `O=C(c1ccns1)N1CCc2[nH]cnc2[C@@H]1c1nc2ccccc2s1` [Example 1052, (R)-(4-(benzo[d]thiazol-2-yl)-6,7-dihydro-1H-imidazo[4,5-c]pyridin-5(4H)-yl)(isothiazol-5-yl)methanone], the AC50 was > 5 µM.

Turning to `O=C(c1cnn2ccccc12)N1CCc2[nH]cnc2[C@@H]1c1nc2ccccc2[nH]1` [Example 922, (R)-(4-(1H-benzo[d]imidazol-2-yl)-6,7-dihydro-1H-imidazo[4,5-c]pyridin-5(4H)-yl)(pyrazolo[1,5-a]pyridin-3-yl)methanone], the AC50 was > 5 µM.

As to `O=C(c1nnc(-c2cnn(CC(F)F)c2)o1)N1CCc2[nH]cnc2[C@H]1c1nc2ccccc2s1` [Example 1871], the concentration at half-maximal activity (AC50) is < 0.5 µM.

As to `O=C(c1cn(CC(F)(F)F)nc1C(F)F)N1CCc2[nH]cnc2[C@H]1c1nc2ccccc2s1` [Example 1985], the AC50 is < 0.5 µM.

As to `O=C(c1ccnn1C(F)(F)F)N1CCc2[nH]cnc2[C@@H]1c1nc2ccccc2s1` [Example 2098, (R)-(4-(benzo[d]thiazol-2-yl)-6,7-dihydro-1H-imidazo[4,5-c]pyridin-5(4H)-yl)(1-(trifluoromethyl)-1H-pyrazol-5-yl)methanone], the AC50 lay in the range of 0.5 to 1 µM.

Consider `Cc1cccc2sc([C@H]3c4nc[nH]c4CCN3C(=O)c3ocnc3C#N)nc12` [Example 2020, (R)-5-(4-(4-methylbenzo[d]thiazol-2-yl)-4,5,6,7-tetrahydro-1H-imidazo[4,5-c]pyridine-5-carbonyl)oxazole-4-carbonitrile], for which the AC50 is > 5 µM.

For `Cc1nc(C(C)(C)C)oc1C(=O)N1CCc2[nH]cnc2[C@@H]1c1nc2c(F)cccc2s1` [Example 1434, (R)-(2-(tert-butyl)-4-methyloxazol-5-yl)(4-(4-fluorobenzo[d]thiazol-2-yl)-6,7-dihydro-1H-imidazo[4,5-c]pyridin-5(4H)-yl)methanone], the AC50 lay within 1 to 5 µM.

`O=C(CCC1CC1)N1CCc2[nH]cnc2[C@H]1c1nc2cccc(F)c2s1` [Example 1133, (S)-3-cyclopropyl-1-(4-(7-fluorobenzo[d]thiazol-2-yl)-6,7-dihydro-1H-imidazo[4,5-c]pyridin-5(4H)-yl)propan-1-one]: the concentration at half-maximal activity (AC50) fell in the range of 0.5 to 1 µM.

Take `O=C(c1cnn2ccc(Cl)cc12)N1CCc2[nH]cnc2[C@H]1c1nc2ccccc2s1` [Example 1107]: the AC50 was < 0.5 µM.

For `O=C(c1nc(Cl)cs1)N1CCc2[nH]cnc2[C@H]1c1nc2ccc(F)cc2s1` [Example 1142], the AC50 was in the range of 0.5 to 1 µM.

Turning to `O=C(c1cc(C(F)(F)F)n[nH]1)N1CCc2[nH]cnc2[C@H]1c1nc2c(F)cccc2s1` [Example 1816, (S)-(4-(4-fluorobenzo[d]thiazol-2-yl)-6,7-dihydro-1H-imidazo[4,5-c]pyridin-5(4H)-yl)(3-(trifluoromethyl)-1H-pyrazol-5-yl)methanone], the AC50 lay in the range of 1 to 5 µM.

For the compound `O=C(c1oc(C2(O)CCC2)nc1C(F)(F)F)N1CCc2[nH]cnc2[C@@H]1c1nc2ccccc2s1` [Example 1566, (R)-(4-(benzo[d]thiazol-2-yl)-6,7-dihydro-1H-imidazo[4,5-c]pyridin-5(4H)-yl)(2-(1-hydroxycyclobutyl)-4-(trifluoromethyl)oxazol-5-yl)methanone], the half-maximal activity concentration (AC50) was < 0.5 µM.

Turning to `CC(C)(F)c1ncc(C(=O)N2CCc3[nH]cnc3[C@H]2c2nc3c(F)cccc3s2)s1` [Example 1486, (S)-(4-(4-fluorobenzo[d]thiazol-2-yl)-6,7-dihydro-1H-imidazo[4,5-c]pyridin-5(4H)-yl)(2-(2-fluoropropan-2-yl)thiazol-5-yl)methanone], the AC50 is < 0.5 µM.

As to `N#Cc1ccn2ncc(C(=O)N3CCc4[nH]cnc4[C@@H]3c3nc4cc(F)ccc4s3)c2c1` [Example 1159, (R)-3-(4-(5-fluorobenzo[d]thiazol-2-yl)-4,5,6,7-tetrahydro-1H-imidazo[4,5-c]pyridine-5-carbonyl)pyrazolo[1,5-a]pyridine-5-carbonitrile], the AC50 is > 5 µM.

Take `CC(C)(C)c1ncoc1C(=O)N1CCc2[nH]cnc2[C@H]1c1nc2c(F)cccc2s1` [Example 2181]: the AC50 is < 0.5 µM.

On to `C[C@@H]1CN(C(=O)c2nnc(-c3ccccn3)o2)[C@H](c2nc3ccccc3s2)c2nc[nH]c21` [Example 1588, ((4S,7R)-4-(benzo[d]thiazol-2-yl)-7-methyl-6,7-dihydro-1H-imidazo[4,5-c]pyridin-5(4H)-yl)(5-(pyridin-2-yl)-1,3,4-oxadiazol-2-yl)methanone], for which the AC50 was 0.5 to 1 µM.

For the compound `COCc1nc(C(F)F)c(C(=O)N2CCc3[nH]cnc3[C@H]2c2nc3ccccc3s2)o1` [Example 1807], the AC50 is < 0.5 µM.

Regarding `O=C(c1oc(-c2ccccn2)nc1C(F)(F)F)N1CCc2[nH]cnc2[C@@H]1c1nc2c(F)cccc2s1` [Example 1612, (R)-(4-(4-fluorobenzo[d]thiazol-2-yl)-6,7-dihydro-1H-imidazo[4,5-c]pyridin-5(4H)-yl)(2-(pyridin-2-yl)-4-(trifluoromethyl)oxazol-5-yl)methanone], the AC50 was < 0.5 µM.

On to `CCc1ccc2c(C(=O)N3CCc4[nH]cnc4[C@H]3c3nc4ccccc4s3)cnn2c1` [Example 1243], for which the AC50 is 1 to 5 µM.

On to `Cn1nc(Cl)cc1C(=O)N1CCc2[nH]cnc2[C@H]1c1nc2c(F)cccc2s1` [Example 1721], for which the AC50 is < 0.5 µM.

As for `O=C(c1cnco1)N1CCc2[nH]cnc2[C@H]1c1nc2c(F)cccc2s1` [Example 1223, (S)-(4-(4-fluorobenzo[d]thiazol-2-yl)-6,7-dihydro-1H-imidazo[4,5-c]pyridin-5(4H)-yl)(oxazol-5-yl)methanone], the AC50 lay in the range of 0.5 to 1 µM.

Staying with this test, now noted: A375 cells expressing human R408W PAH; 24 hrs with compound; 13C-Tyrosine by LC-MS; average where tested multiple times; read-out: AC50.
With `COc1cccc(C=CC(=O)N2CCc3[nH]cnc3C2c2nc3ccccc3[nH]2)c1` (centres unmarked), the half-maximal activity concentration (AC50) was > 5 µM.

In the case of `Cc1cnc(CCC(=O)N2CCc3[nH]cnc3[C@H]2c2nc3ccccc3[nH]2)s1` [(S)-1-(4-(1H-benzo[d]imidazol-2-yl)-1,4,6,7-tetrahydro-5H-imidazo[4,5-c]pyridin-5-yl)-3-(5-methylthiazol-2-yl)propan-1-one], the AC50 lay within 1 to 5 µM.

In the case of `O=C(c1nc(C(F)(F)F)co1)N1CCc2[nH]cnc2C1c1nc2ccccc2s1` (centres unmarked), the AC50 lay within 1 to 5 µM.

With `CC(C)(O)Cn1ncc(C(=O)N2CCc3[nH]cnc3C2c2nc3c(F)cccc3s2)c1C(F)F` (centres unmarked), the concentration at half-maximal activity (AC50) was in the range of 1 to 5 µM.

On to `CN(C)CCc1nnc(C(=O)N2CCc3[nH]cnc3C2c2nc3ccccc3s2)o1` (centres unmarked), for which the AC50 was > 5 µM.

On to `COC(=O)N1CC(C(=O)N2CCc3[nH]cnc3C2c2nc3ccccc3s2)C1` (centres unmarked), for which the AC50 lay in the range of 1 to 5 µM.

For the compound `Cn1nc(CO)cc1C(=O)N1CCc2[nH]cnc2[C@@H]1c1nc2c(F)cccc2s1` (single isomer, unassigned), the AC50 is > 5 µM.

As to `Cc1nnc(C(=O)N2CC(C)c3[nH]cnc3C2c2nc3ccccc3s2)o1` (centres unmarked), the AC50 is > 5 µM.

Consider `O=C(c1cnco1)N1CCc2[nH]cnc2[C@H]1c1nc2ccccc2[nH]1` [(S)-(4-(1H-benzo[d]imidazol-2-yl)-1,4,6,7-tetrahydro-5H-imidazo[4,5-c]pyridin-5-yl)(oxazol-5-yl)methanone], for which the AC50 was 1 to 5 µM.

Turning to `COc1ccc2c(C(=O)N3CCc4[nH]cnc4[C@H]3c3nc4ccccc4[nH]3)cnn2c1` [(S)-(4-(1H-benzo[d]imidazol-2-yl)-6,7-dihydro-1H-imidazo[4,5-c]pyridin-5(4H)-yl)(6-methoxypyrazolo[1,5-a]pyridin-3-yl)methanone], the AC50 fell in the range of 1 to 5 µM.

Consider `O=C(C1CC1F)N1CCc2[nH]cnc2C1c1nc2ccccc2s1` (centres unmarked), for which the AC50 lay within 1 to 5 µM.

On to `CN(C)CCCc1nnc(C(=O)N2CCc3[nH]cnc3[C@H]2c2nc3ccccc3s2)o1` (single isomer, unassigned), for which the AC50 fell in the range of 1 to 5 µM.

For the compound `O=C(c1cnn2cccc(F)c12)N1CCc2[nH]cnc2[C@H]1c1nc2ccccc2[nH]1` [(S)-(4-(1H-benzo[d]imidazol-2-yl)-1,4,6,7-tetrahydro-5H-imidazo[4,5-c]pyridin-5-yl)(4-fluoropyrazolo[1,5-a]pyridin-3-yl)methanone], the AC50 fell in the range of 1 to 5 µM.

Regarding `Cc1ncc(C(=O)N2CCc3[nH]cnc3C2c2nc3ccccc3s2)o1` (centres unmarked), the AC50 is 1 to 5 µM.

Regarding `O=C(c1ncn2ccccc12)N1CCc2[nH]cnc2C1c1nc2ccccc2[nH]1` (centres unmarked), the AC50 was > 5 µM.

On to `Cn1nc(C2CC2)cc1C(=O)N1CCc2[nH]cnc2[C@@H]1c1nc2c(F)cccc2s1` (single isomer, unassigned), for which the concentration at half-maximal activity (AC50) is > 5 µM.

With `O=C(c1cnn2cc(C=Cc3ccccc3)ccc12)N1CCc2[nH]cnc2C1c1nc2ccccc2s1` (centres unmarked), the AC50 is > 5 µM.

Regarding `CC(C)(O)c1nc(C(=O)N2CCc3[nH]cnc3C2c2nc3ccccc3s2)no1` (centres unmarked), the AC50 fell in the range of 1 to 5 µM.

For the compound `c1ccc2sc(C3c4nc[nH]c4CCN3CC3CC3)nc2c1` (centres unmarked), the concentration at half-maximal activity (AC50) was > 5 µM.

As for `Clc1ccc2nc(C3c4nc[nH]c4CCN3Cc3nccs3)[nH]c2c1` (centres unmarked), the AC50 was > 5 µM.

Regarding `Cc1ncc(C(=O)N2CCc3[nH]cnc3C2c2nc3ccccc3s2)s1` (centres unmarked), the AC50 is > 5 µM.

With `Cc1nnc(CN2CCc3[nH]cnc3C2c2nc3ccccc3[nH]2)s1` (centres unmarked), the AC50 was > 5 µM.
